Measurements from patent US20040229942A1, “Analeptic and antidepressant combinations” (Cephalon Inc, priority 2003, published 2004).

Assays:
[1] = system: patients previously diagnosed with MDD (single episode or recurrent); test: Clinical study: modafinil started together with an SSRI (fluoxetine or paroxetine) in MDD patients, depressive symptom assessment (HAMD-21, HAMD-31, response, remission); conditions: human, in vivo
Method: Eligible patients were previously diagnosed with MDD (single episode or recurrent), […] had significant fatigue (Fatigue Severity Scale [FSS] score of greater than or equal to 4), and had not taken antidepressant therapy for greater than or equal to 4 weeks. Patients were evaluated at screening, baseline (shown in Table 1), and weeks 1, 2, 3, 4, 5, and 6.
Patients were then started on a combination of an SSRI and modafinil.
Modafinil was initiated at 100 mg/day for 3 days and then titrated to 200 mg/day, depending on response and tolerability. SSRI therapy was either fluoxetine or paroxetine administered at 20 mg/day for 6 weeks.
Depressive symptom changes were analyzed using HAMD-31, each of which were videotaped and rated independently, and HAMD-21 total score evaluations. HAMD-21 total score analyses were also performed to evaluate response and remission rates. Changes in fatigue were assessed using the FSS. A fatigue response was defined as an FSS score of less than 4 at any post-baseline visit. […] Subjective sleepiness was assessed using the Epworth Sleepiness Scale (ESS). […] Symptoms associated with depression, including fatigue, mood, motivation, and concentration, were evaluated using patient-assessed Visual Analogue Scales (VAS).
Continuous variables were analyzed using a paired t-test for normally distributed data or Wilcoxon signed rank test for non-normal data. […]

non-human primates = non-human primates (Hernant et al, 1991); cited from earlier work
cats = cats (Lin et al., 1992); cited from earlier work
canines = canines (Shelton et al., 1995); cited from earlier work
rats = rats (Touret et al., 1995; Edgar and Seidel, 1997); cited from earlier work
[2] = system: major depressive disorder; conditions: at 6 weeks; cited from earlier work

Row | SMILES | overall conclusion on adjuvant effect in patients with depression and significant fatigue [1] | wakefulness (non-human primates) | wakefulness (cats) | wakefulness (canines) | wakefulness (rats) | response to antidepressant therapy [2]
1 | NC(=O)C[S+]([O-])C(c1ccccc1)c1ccccc1 (stereo not drawn) [Modafinil, 2-(benzhydrylsulfinyl) acetamide] | rapid-acting and effective adjuvant medication | promotes wakefulness | promotes wakefulness | promotes wakefulness | promotes wakefulness | 
2 | CNCCC(Oc1ccc(C(F)(F)F)cc1)c1ccccc1 (stereo not drawn) [fluoxetine] |  |  |  |  |  | about 50%
